From patent publication US20240261365A1, “POLYPEPTIDE ALBUMIN NANOPARTICLE, PREPARATION METHOD THEREFOR, AND APPLICATION THEREOF” (SUZHOU INSTITUTE OF NANO-TECH AND NANO-BIONICS (SINANO) , …, priority 2020, published 2024)
Read-outs that look alike come from different tables or passages of the source. Where a SMILES comes first, the peptide text is derived from it.

Assays:
[1] = concentration in blood after tail vein injection, ICP-MASS of iridium; settings: mouse, in vivo, BALB/c mice, 100 μL of 500 μM, read-out: elimination half-life in the blood
Experimental: 36 BALB/c mice were equally divided into two groups and injected with 100 μL of Ir-cR8 and Ir-cR8-HSA nanoparticles (500 μM) through tail veins, separately. After 0.5 h, 2 h, 4 h, 8 h, 24 h and 48 h, eyes were removed for blood sampling and centrifuged at 10000 rpm for 10 min. […] of centrifuged serum was added with 1 mL of high chlorine acid and 3 mL of aqua regia, digested at 260° C. for 2 h, and added with water to 10 mL. The content of metal iridium in the blood at each time point was detected by ICP-MASS.

[2] = test system: Human cervical cancer cells, Hela cells; type: cell-based
Experimental: Human cervical cancer cells, Hela cells, were dispersed with a DMEM medium containing 10% fetal bovine serum and spread to a 96-well plate, 8000 cells per well. After the cells were attached to the walls, Ir-cR5, Ir-cR8 and Ir-aR8 of 2, 4, 8, 16, 32, 64 and 128 μM and the corresponding oligoarginine polypeptides cR5, cR8 and aR8 were added and incubated for 24 h. The cell activity was detected by a thiazole blue method and the half-maximal inhibitory concentration (IC50) was calculated.

[3] = molecular target: T1, human serum albumin (HSA) (human, UniProt P02768 25-609); assay: dynamic light scattering of peptide-albumin assembly
T1 construct: Dissolved in water and used in solution
T1 sequence (P02768 25-609 limits assumed): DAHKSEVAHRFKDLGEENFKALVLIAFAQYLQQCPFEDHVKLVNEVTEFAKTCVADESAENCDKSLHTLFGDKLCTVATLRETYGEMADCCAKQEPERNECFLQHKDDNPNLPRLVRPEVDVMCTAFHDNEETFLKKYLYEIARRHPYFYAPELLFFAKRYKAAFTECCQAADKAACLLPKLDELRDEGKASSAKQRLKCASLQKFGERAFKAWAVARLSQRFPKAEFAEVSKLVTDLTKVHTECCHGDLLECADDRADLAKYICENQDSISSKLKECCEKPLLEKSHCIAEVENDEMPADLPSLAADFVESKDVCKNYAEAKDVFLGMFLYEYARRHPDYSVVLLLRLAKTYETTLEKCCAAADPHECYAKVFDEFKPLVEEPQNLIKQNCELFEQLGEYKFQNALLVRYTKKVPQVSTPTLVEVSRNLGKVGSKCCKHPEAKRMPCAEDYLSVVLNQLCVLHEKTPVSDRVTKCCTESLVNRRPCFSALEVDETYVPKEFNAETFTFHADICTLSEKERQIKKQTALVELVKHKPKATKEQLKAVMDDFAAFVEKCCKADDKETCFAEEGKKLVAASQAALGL
Experimental: The detection was performed at 25° C. using the dynamic light scattering apparatus, and only the peaks of the formed polypeptide albumin nanoparticles were calculated.

| binding result [3] | Molecule | further results |
| --- | --- | --- |
| – | CC(=O)N[C@@H](Cc1c[nH]cn1)C(=O)N[C@@H](CCCNC(=N)N)C(=O)N[C@@H](CCCNC(=N)N)C(=O)N[C@@H](CCCNC(=N)N)C(=O)N[C@@H](CCCNC(=N)N)C(=O)N[C@@H](CCCNC(=N)N)C(=O)N[C@@H](CCCNC(=N)N)C(=O)N[C@@H](CCCNC(=N)N)C(=O)N[C@@H](CCCNC(=N)N)C(=O)N[C@@H](Cc1c[nH]cn1)C(N)=O [Ir-cR8] (Ac-HRRRRRRRRH-NH2) | half-life [1]: < 30 min |
| – | CC(=O)N[C@@H](Cc1c[nH]cn1)C(=O)N[C@@H](Cc1c[nH]cn1)C(=O)N[C@@H](CCCNC(=N)N)C(=O)N[C@@H](CCCNC(=N)N)C(=O)N[C@@H](CCCNC(=N)N)C(=O)N[C@@H](CCCNC(=N)N)C(=O)N[C@@H](CCCNC(=N)N)C(=O)N[C@@H](CCCNC(=N)N)C(=O)N[C@@H](CCCNC(=N)N)C(=O)N[C@@H](CCCNC(=N)N)C(N)=O [aR8] (Ac-HHRRRRRRRR-NH2; N-terminus and C-terminus assumed) | IC50 ([2]; 24 h): > 100 µM |
| – | CC(=O)NC(Cc1c[nH]cn1)C(=O)NC(CCCNC(=N)N)C(=O)NC(CCCNC(=N)N)C(=O)NC(CCCNC(=N)N)C(=O)NC(CCCNC(=N)N)C(=O)NC(CCCNC(=N)N)C(=O)NC(Cc1c[nH]cn1)C(N)=O (centres unmarked) [cR5] (Ac-HRRRRRH-NH2; configuration not given here) | IC50 ([2]; 24 h): > 100 µM |
| – | CC(=O)NC(Cc1c[nH]cn1)C(=O)NC(CCCNC(=N)N)C(=O)NC(CCCNC(=N)N)C(=O)NC(CCCNC(=N)N)C(=O)NC(CCCNC(=N)N)C(=O)NC(CCCNC(=N)N)C(=O)NC(CCCNC(=N)N)C(=O)NC(CCCNC(=N)N)C(=O)NC(CCCNC(=N)N)C(=O)NC(Cc1c[nH]cn1)C(N)=O (centres unmarked) [cR8] (Ac-HRRRRRRRRH-NH2; configuration not given here) | IC50 ([2]; Hela cells, incubated for 24 h, read-out: IC50): > 100 µM |
| binds | cholesterol-RRRRRRRR-NH2 [chol-RRRRRRRR (SEQ ID NO: 2)-CONH2 (CR)] | – |
| binds | Ac-KKKKHHKKKK-NH2 (also: coordinated with iridium complex from [Ir(ppy)2(H2O)2]OTf (1:1), also called Formula VII) [iridium-coordinated oligopolypeptide (Ir-mK8)] | – |
| binds | Ac-HKKKKKKKKH-NH2 (also: coordinated with iridium complex from [Ir(ppy)2(H2O)2]OTf (1:1), also called Formula VIII) [iridium-coordinated oligopolypeptide (Ir-cK8)] | – |
| binds | Ac-FWLFLRRRRRRRR-NH2 [CH3CO-FWLFLRRRRRRRR (SEQ ID NO: 1)-CONH2 (FR)] | – |
